Reference: patent EP4782444A1, “CRYSTAL FORM OF PYRIMIDINE ANILINE COMPOUND, PREPARATION METHOD, AND USE” (TYK Medicines, Inc., priority 2023, dated 2025)
Values after ≈ are worked out from the molar mass of the structure shown. Where two headings read alike, the source gives them in different places. Each block holds one molecule with its values, some of them ahead of it.

How the values were obtained:
[1] = Pharmacokinetic study in rats, single oral gavage; conditions: SD rats, 30 mpk; for AUC0-last / Cmax / T1/2 / Tmax: plasma, 30 mg/kg
Description: (§1) SD rats received a single oral gavage administration of citrate crystalline form I, mesylate crystalline form I, and free base crystalline form I, respectively. Blood samples were collected at various time points to determine drug concentrations in rat plasma post administration of tested substance and calculate PK-related parameters.
(§2) The prepared test sample solutions were analyzed by the analytical department of the present test facility using LC-MS/MS.
(§3) Animals were fasted (≥10 h) with free access to water from the day before dosing. On the test day, rats were weighed respectively, marked at the tail, and blank blood samples were collected before administration. Blood was collected via tail vein.
(§4) 0.1 mL of whole blood was collected into EDTA-Na2 anticoagulant tubes, inverted 3-4 times to mix well, centrifuged at 10,000 g, 4 °C for 5 min to separate plasma, and stored at - 80 °C until analysis. Blood was collected via tail vein.
(§5) Plasma samples were analyzed by the analytical department of the test facility using LC-MS/MS.

[2] = 37 °C
physchem [3] = experiment: physchem
[4] = Solid-state stability study (HPLC and XRPD analysis); assay type: physicochemical
in vivo = conditions: rat, po, 30 mg/kg
Description: as §1, §2, §3, §4, §5

physchem [5] = experiment: physchem; remark: listed apart in the source
[6] = day 0 (baseline before storage), mean of 3 parallel experiments

AUC0-last [1]: 1122.05 ng·h/mL
Cmax [1]: 126.5 ng/mL
T1/2 [1]: 2.19 h
Tmax [1]: 4 h
Solubility ([2]; FaSSIF, 0.5 h, 30 min): 130 µg/mL (≈ 0.213 mM)
Solubility ([2]; FaSSIF, 2 h, 120 min): 130 µg/mL (≈ 0.213 mM)
Solubility ([2]; FaSSIF, 24 h, 1440 min): 180 µg/mL (≈ 0.295 mM)
Solubility ([2]; FeSSIF, 0.5 h, 30 min): 3530 µg/mL (≈ 5.79 mM)
Solubility ([2]; FeSSIF, 2 h, 120 min): > 5020 µg/mL
Solubility ([2]; FeSSIF, 24 h, 1440 min): > 5020 µg/mL
Solubility ([2]; H2O, 0.5 h, 30 min): 10 µg/mL (≈ 0.0164 mM)
Solubility ([2]; H2O, 2 h, 120 min): 10 µg/mL (≈ 0.0164 mM)
Solubility ([2]; H2O, 24 h, 1440 min): 10 µg/mL (≈ 0.0164 mM)
Solubility ([2]; SGF, 0.5 h, 30 min): >5000 µg/mL
Solubility ([2]; SGF, 2 h, 120 min): > 5000 µg/mL
Solubility ([2]; SGF, 24 h, 1440 min): > 5000 µg/mL
Solubility (physchem [3]; 1,4-dioxane): < 270 µg/mL
Solubility (physchem [3]; acetone): 2220 to 4440 µg/mL (≈ 3.64 to 7.28 mM)
Solubility (physchem [3]; acetonitrile): 930 to 1010 µg/mL (≈ 1.53 to 1.66 mM)
Solubility (physchem [3]; cyclohexane): < 330 µg/mL
Solubility (physchem [3]; dce): 61800 to 124000 µg/mL (≈ 101 to 203 mM)
Solubility (physchem [3]; dcm): > 107000 µg/mL
Solubility (physchem [3]; dmso): 2600 to 2930 µg/mL (≈ 4.26 to 4.81 mM)
Solubility (physchem [3]; ethanol): < 300 µg/mL
Solubility (physchem [3]; ethyl acetate): < 290 µg/mL
Solubility (physchem [3]; heptane): < 300 µg/mL
Solubility (physchem [3]; ipac): < 300 µg/mL
Solubility (physchem [3]; isopropanol): < 350 µg/mL
Solubility (physchem [3]; mek): 2780 to 4440 µg/mL (≈ 4.56 to 7.28 mM)
Solubility (physchem [3]; meoh): < 400 µg/mL
Solubility (physchem [3]; mtbe): < 330 µg/mL
Solubility (physchem [3]; nmp): 18200 to 27400 µg/mL (≈ 29.9 to 44.9 mM)
Solubility (physchem [3]; thf): 2550 to 3190 µg/mL (≈ 4.18 to 5.23 mM)
Solubility (physchem [3]; water): < 270 µg/mL
Compound: C=CC(=O)Nc1cc(Nc2ncc(C(=O)OC(C)C)c(-c3cn(C)c4ccccc34)n2)c(OC)cc1N(C)[C@@H]1[C@@H]2CN(C)C[C@@H]21 [Free base crystalline form I]

in vivo exposure in rats compared with free base crystalline form I [1]: higher
Appearance ([4]; 25°C/60%RH, day 3): Unchanged
Crystalline Form ([4]; 25°C/60%RH, day 3, XRPD): Unchanged
Purity % ([4]; 25°C/60%RH, day 3, open vial): 98.68%
Appearance ([4]; 25°C/60%RH, day 7): Unchanged
Crystalline Form ([4]; 25°C/60%RH, day 7, XRPD): Unchanged
Purity % ([4]; 25°C/60%RH, day 7, open vial): 98.61%
Appearance ([4]; 25°C/95±5%RH, day 3): Unchanged
Crystalline Form ([4]; 25°C/95±5%RH, day 3, XRPD): Unchanged
Purity % ([4]; 25°C/95±5%RH, day 3, open vial): 98.66%
Appearance ([4]; 25°C/95±5%RH, day 7): Unchanged
Crystalline Form ([4]; 25°C/95±5%RH, day 7, XRPD): Unchanged
Purity % ([4]; 25°C/95±5%RH, day 7, open vial): 98.67%
Appearance ([4]; 40°C/75%RH, day 3): Unchanged
Crystalline Form ([4]; 40°C/75%RH, day 3, XRPD): Unchanged
Purity % ([4]; 40°C/75%RH, day 3, open vial): 98.66%
Appearance ([4]; 40°C/75%RH, day 7): Unchanged
Crystalline Form ([4]; 40°C/75%RH, day 7, XRPD): Unchanged
Purity % ([4]; 40°C/75%RH, day 7, open vial): 98.59%
Appearance ([4]; 60 °C, day 3): Unchanged
Crystalline Form ([4]; 60 °C, day 3, XRPD): Unchanged
Purity % ([4]; 60 °C, day 3, open vial): 98.68%
Appearance ([4]; 60 °C, day 7): Unchanged
Crystalline Form ([4]; 60 °C, day 7, XRPD): Unchanged
Purity % ([4]; 60 °C, day 7, open vial): 98.66%
Appearance ([4]; 80 °C, day 1): Unchanged
Crystalline Form ([4]; 80 °C, day 1, XRPD): Unchanged
Purity % ([4]; 80 °C, day 1, open vial): 98.71%
Appearance ([4]; 80 °C, day 3): Unchanged
Crystalline Form ([4]; 80 °C, day 3, XRPD): Unchanged
Purity % ([4]; 80 °C, day 3, open vial): 98.68%
Purity % [4, 6]: 98.74%
crystalline form and chemical purity ([4]; under the five storage conditions): did not change significantly
AUC(0-t) (in vivo): 1700 ng·h/mL
Cmax (in vivo): 126 ng/mL
Tmax (in vivo): 5 h
half-life (in vivo): 3.01 h
Solubility ([2]; FaSSIF, 0.5 h, 30 min): >5000 µg/mL
Solubility ([2]; FaSSIF, 2 h, 120 min): > 5000 µg/mL
Solubility ([2]; FaSSIF, 24 h, 1440 min): 3990 µg/mL
Solubility ([2]; FeSSIF, 0.5 h, 30 min): > 5020 µg/mL
Solubility ([2]; FeSSIF, 2 h, 120 min): > 5020 µg/mL
Solubility ([2]; FeSSIF, 24 h, 1440 min): > 5020 µg/mL
Solubility ([2]; H2O, 0.5 h, 30 min): 1910 µg/mL
Solubility ([2]; H2O, 2 h, 120 min): 1990 µg/mL
Solubility ([2]; H2O, 24 h, 1440 min): 2440 µg/mL
Solubility ([2]; SGF, 0.5 h, 30 min): > 5040 µg/mL
Solubility ([2]; SGF, 2 h, 120 min): > 5040 µg/mL
Solubility ([2]; SGF, 24 h, 1440 min): > 5040 µg/mL
Compound: C=CC(=O)Nc1cc(Nc2ncc(C(=O)OC(C)C)c(-c3cn(C)c4ccccc34)n2)c(OC)cc1N(C)[C@@H]1[C@@H]2CN(C)C[C@@H]21 [Citrate crystalline form I]

in vivo exposure in rats compared with free base crystalline form I [1]: higher
AUC0-last [1]: 1811.31 ng·h/mL
Cmax [1]: 222.5 ng/mL
T1/2 [1]: 2.54 h
Tmax [1]: 3 h
Appearance ([4]; 25°C/60%RH, day 3): Unchanged
Crystalline Form ([4]; 25°C/60%RH, day 3, XRPD): Unchanged
Purity % ([4]; 25°C/60%RH, day 3, open vial): 98.19%
Appearance ([4]; 25°C/60%RH, day 7): Unchanged
Crystalline Form ([4]; 25°C/60%RH, day 7, XRPD): Unchanged
Purity % ([4]; 25°C/60%RH, day 7, open vial): 98.24%
Appearance ([4]; 25°C/95±5%RH, day 3): Unchanged
Crystalline Form ([4]; 25°C/95±5%RH, day 3, XRPD): Unchanged
Purity % ([4]; 25°C/95±5%RH, day 3, open vial): 98.17%
Appearance ([4]; 25°C/95±5%RH, day 7): Unchanged
Crystalline Form ([4]; 25°C/95±5%RH, day 7, XRPD): Unchanged
Purity % ([4]; 25°C/95±5%RH, day 7, open vial): 98.20%
Appearance ([4]; 40°C/75%RH, day 3): Unchanged
Crystalline Form ([4]; 40°C/75%RH, day 3, XRPD): Unchanged
Purity % ([4]; 40°C/75%RH, day 3, open vial): 98.17%
Appearance ([4]; 40°C/75%RH, day 7): Unchanged
Crystalline Form ([4]; 40°C/75%RH, day 7, XRPD): Unchanged
Purity % ([4]; 40°C/75%RH, day 7, open vial): 98.16%
Appearance ([4]; 60 °C, day 3): Unchanged
Crystalline Form ([4]; 60 °C, day 3, XRPD): Unchanged
Purity % ([4]; 60 °C, day 3, open vial): 98.15%
Appearance ([4]; 60 °C, day 7): Unchanged
Crystalline Form ([4]; 60 °C, day 7, XRPD): Unchanged
Purity % ([4]; 60 °C, day 7, open vial): 98.12%
Appearance ([4]; 80 °C, day 1): Unchanged
Crystalline Form ([4]; 80 °C, day 1, XRPD): Unchanged
Purity % ([4]; 80 °C, day 1, open vial): 98.38%
Appearance ([4]; 80 °C, day 3): Unchanged
Crystalline Form ([4]; 80 °C, day 3, XRPD): Unchanged
Purity % ([4]; 80 °C, day 3, open vial): 98.24%
Purity % [4, 6]: 98.50%
Crystalline Form ([4]; under all five storage conditions): remained unchanged
solubility at 0.5 h (physchem [5]; fessif): > 5010 µg/mL
solubility at 2 h (physchem [5]; fessif): > 5010 µg/mL
solubility at 24 h (physchem [5]; fessif): > 5010 µg/mL
solubility at 0.5 h (physchem [5]; sgf): > 5000 µg/mL
solubility at 2 h (physchem [5]; sgf): > 5000 µg/mL
solubility at 24 h (physchem [5]; sgf): > 5000 µg/mL
Solubility ([2]; FaSSIF, 0.5 h, 30 min): >5000 µg/mL
Solubility ([2]; FaSSIF, 2 h, 120 min): > 5000 µg/mL
Solubility ([2]; FaSSIF, 24 h, 1440 min): 3410 µg/mL
Solubility ([2]; H2O, 0.5 h, 30 min): >5000 µg/mL
Solubility ([2]; H2O, 2 h, 120 min): > 5000 µg/mL
Solubility ([2]; H2O, 24 h, 1440 min): > 5000 µg/mL
Compound: C=CC(=O)Nc1cc(Nc2ncc(C(=O)OC(C)C)c(-c3cn(C)c4ccccc34)n2)c(OC)cc1N(C)[C@@H]1[C@@H]2CN(C)C[C@@H]21 [Mesylate crystalline form I]
